# Measurements reported in patent publication US20240390349A1, “DOSING REGIMEN OF CAPSID INHIBITOR” (priority 2023, published 2024).
# Like-named read-outs stand apart in the source and are kept apart here.
# Assays:
# [1] = Exposure-response analyses for efficacy and safety (PopPK-derived exposures); assay type: in vivo, human
# Description: Exposure-response relationships for LEN were evaluated in HTE PWH with HIV-1 RNA<50 copies/mL at the oral bridging baseline in the Phase 2/3 study described in Example 4, using LEN exposure parameters (Ctrough, Cavg, and Cmax) derived from PopPK modeling.
# Exposure-safety relationships for LEN were evaluated in the HTE PWH studies described in Example 4 (N=55), and in treatment-naive PWH in the study described in Example 5 (N=82) who received the oral bridging LEN regimen. Exposure-safety evaluations used LEN exposure metrics (Cavg, Ctrough, and Cmax) derived from PopPK analysis and the 5 most common treatment-emergent adverse events (TEAEs) were evaluated in relation to presence/absence in the LEN group across the entire oral bridging period in the two studies separately and combined (excluding infections and infestations AEs and injection site reactions).
# HIV-1 = assay: Efficacy of oral bridging (HIV-1 RNA, CD4), CAPELLA; assay type: in vivo, human; conditions: for Percentage who maintained HIV-1 RNA<50 copies/mL: OB baseline HIV-1 RNA<50, Missing=Failure; for Proportion of participants with HIV-1 RNA<50 copies/mL: suppressed at OB baseline
# Source text: This Example describes analysis of oral LEN bridging administered during a Phase 2/3, global, randomized, placebo-controlled multicenter study of lenacapavir (LEN) together with an optimized background regimen (OBR) in people with HIV (PWH) with multidrug resistance (MDR) (to […] antiretroviral (ARV) medications from each of ≥3 of the 4 main classes) and who are failing their current regimen (defined as plasma HIV-1 RNA≥400 copies/mL).
# This Example describes a Phase 2/3, global, randomized, placebo-controlled multicenter study of LEN together with an OBR in PWH with MDR (to ≥2 ARV medications from each of ≥3 of the 4 main classes) and who are failing their current regimen (defined as plasma HIV-1 RNA≥400 copies/mL). Participants required oral bridging if an SC injection of LEN was not administered within the protocol visit window.
# Participants were enrolled in either of the following two cohorts: • Cohort 1: Randomized in a 2:1 ratio to receive oral LEN or placebo for 14 days starting on Day 1, while they continued their existing regimen; or • Cohort 2: Enrolled to receive oral LEN together with an OBR.
# [2] = human, in vivo, sc
# [3] = LEN plasma concentrations during oral bridging period, CALIBRATE (Phase 2, ARV-naive PWH); assay type: in vivo; conditions: for concentration at 1 day / concentration at 10 week / concentration at 20 week / concentration at 30 week: human, plasma, 300 mg
# Source text: The objective of this study was to evaluate the pharmacokinetics (PK) of LEN during oral bridging period (OBP) to assess the adequacy of 300-mg PO once-weekly (QW) regimen for maintaining therapeutic concentrations between missed SC LEN doses. During OBP, sparse PK samples were collected at the start of OBP and every ˜10-12 weeks (without regard to a prespecified time since dose) until SC LEN was resumed. LEN plasma concentrations were summarized during OBP in the CAPELLA (N=57) and CALIBRATE (N=82) studies.
# This Example describes a Phase 2, randomized, open-label, active-controlled, multicenter study. Participants in Treatment Groups 1 and 2 required oral bridging following a clinical hold imposed by the Food & Drug Administration on injectable LEN as the SC injection of LEN could not be administered within the protocol visit window. An Oral Bridging visit was completed every 10 to 12 weeks. Participants had to have met all of the inclusion criteria and none of the exclusion criteria to be included in the study.
# Participants in Treatment Groups 1 and 2 required oral weekly bridging when SC injection of LEN could not be administered due to the LEN clinical hold. • If 26 to 28 weeks elapsed since the last SC injection and if clinically appropriate to continue LEN, oral LEN 300 mg (1 tablet) once a week was started at oral bridging visits and continued weekly dosing on the same day of the week. • If more than 28 weeks elapsed since the last SC injection and if clinically appropriate to continue LEN, the oral lead-in was restarted at the oral bridging visit and the participant continued oral weekly dosing on the same day of the week, until SC LEN was administered, as shown in Table 9. • Participants continued receiving oral weekly LEN 300 mg until they received their next SC LEN injection. • Oral bridging visits were completed every 10-12 weeks. Additional visits during the oral weekly administration were conducted perd investigator's discretion.
# [4] = SC LEN total, SC LEN resumption visit
# [5] = Treatment Group 1, SC LEN resumption visit
# [6] = Treatment Group 2, SC LEN resumption visit
compound,measurement,setting,value
"CC(C)(C#Cc1ccc(-c2ccc(Cl)c3c(NS(C)(=O)=O)nn(CC(F)(F)F)c23)c([C@H](Cc2cc(F)cc(F)c2)NC(=O)Cn2nc(C(F)(F)F)c3c2C(F)(F)[C@@H]2C[C@H]32)n1)S(C)(=O)=O [LEN, N—((S)-1-(3-(4-chloro-3-(methylsulfonamido)-1-(2,2,2-trifluoroethyl)-1H-indazol-7-yl)-6-(3-methyl-3-(methylsulfonyl)but-1-yn-1-yl)pyridin-2-yl)-2-(3,5-difluorophenyl)ethyl)-2-((3bS,4aR)-5,5-difluoro-3-(trifluoromethyl)-3b,4,4a,5-tetrahydro-1H-cyclopropa [3,4]cyclopenta [1,2-c]pyrazol-1-yl) acetamide]","Exposure-safety relationship (Cavg, Ctrough, Cmax vs common AEs)","[1]; Examples 4 (N=55) and 5 (N=82), separately and combined",lack of association between LEN exposure from oral bridging and the incidence of common AEs
same,Exposure-efficacy relationship (post hoc Ctrough vs HIV-1 RNA <50 or ≥50 copies/mL),[1]; HTE PWH (Example 4),No trend in post hoc Ctrough was observed
same,Participants with HIV-1 RNA<50 copies/mL at the time SC LEN was resumed,[1]; HTE PWH with HIV-1 RNA<50 at OB baseline (Example 4),39 of 40
same,CD4 count and CD4% during oral bridging (in words),HIV-1,continued to increase from oral bridging baseline
same,Mean (SD) oral bridging baseline CD4 cell count,HIV-1,356 (261.1) cells/μL
same,Mean oral bridging baseline CD4 percentage,HIV-1,17.0%
same,Percentage who maintained HIV-1 RNA<50 copies/mL,HIV-1; Week 10,97.8%
same,Percentage who maintained HIV-1 RNA<50 copies/mL,HIV-1; Week 20,90.9%
same,Mean (SD) change from oral bridging baseline in HIV-1 RNA,"HIV-1; OB baseline HIV-1 RNA<50, Week 10",0.00 (0.250) log10 copies/mL
same,Mean (SD) change from oral bridging baseline in HIV-1 RNA,"HIV-1; OB baseline HIV-1 RNA<50, Week 20",−0.01 (0.096) log10 copies/mL
same,Mean (SD) baseline HIV-1 RNA,HIV-1; OB baseline HIV-1 RNA<50 copies/mL,1.34 (0.121) log10 copies/mL
same,Percentage who achieved HIV-1 RNA<50 copies/mL,"HIV-1; OB baseline HIV-1 RNA≥50, Missing=Excluded, Week 10",27.3%
same,Percentage who achieved HIV-1 RNA<50 copies/mL,"HIV-1; OB baseline HIV-1 RNA≥50, Missing=Excluded, Week 20",50.0%
same,Percentage who achieved HIV-1 RNA<50 copies/mL,"HIV-1; OB baseline HIV-1 RNA≥50, Missing=Failure, Week 10",27.3%
same,Percentage who achieved HIV-1 RNA<50 copies/mL,"HIV-1; OB baseline HIV-1 RNA≥50, Missing=Failure, Week 20",40.0%
same,Mean (SD) change from oral bridging baseline in HIV-1 RNA,"HIV-1; OB baseline HIV-1 RNA≥50, Week 10",−0.58 (1.188) log10 copies/mL
same,Mean (SD) change from oral bridging baseline in HIV-1 RNA,"HIV-1; OB baseline HIV-1 RNA≥50, Week 20",−1.05 (0.867) log10 copies/mL
same,Mean (SD) baseline HIV-1 RNA,HIV-1; OB baseline HIV-1 RNA≥50 copies/mL,3.43 (1.035) log10 copies/mL
same,Mean (SD) change from oral bridging baseline in CD4 cell count,HIV-1; Week 10,−16 (114.2) cells/μL
same,Mean change from oral bridging baseline in CD4 percentage,HIV-1; Week 10,0.2%
same,HIV-1 RNA of the 1 participant who did not maintain <50 copies/mL,"HIV-1; Week 10, missed 2 nonconsecutive oral doses, N74D",920 copies/mL
same,HIV-1 RNA of the 1 participant who did not maintain <50 copies/mL,HIV-1; Week 20,57 copies/mL
same,Mean (SD) change from oral bridging baseline in CD4 cell count,HIV-1; Week 20,12 (71.8) cells/μL
same,Mean change from oral bridging baseline in CD4 percentage,HIV-1; Week 20,1.0%
same,Mean (SD) oral bridging baseline HIV-1 RNA,HIV-1; all who received oral bridging,1.74 (0.947) log10 copies/mL
same,Percentage of participants with HIV-1 RNA<50 copies/mL,"HIV-1; all who received oral bridging, Missing=Excluded, Week 10",83.9%
same,Percentage of participants with HIV-1 RNA<50 copies/mL,"HIV-1; all who received oral bridging, Missing=Excluded, Week 20",91.4%
same,Percentage of participants with HIV-1 RNA<50 copies/mL,"HIV-1; all who received oral bridging, Missing=Failure, Week 10",83.9%
same,Percentage of participants with HIV-1 RNA<50 copies/mL,"HIV-1; all who received oral bridging, Missing=Failure, Week 20",84.2%
same,Mean (SD) change from oral bridging baseline in HIV-1 RNA,"HIV-1; all who received oral bridging, Week 10",-0.11 (0.597) log10 copies/mL
same,Mean (SD) change from oral bridging baseline in HIV-1 RNA,"HIV-1; all who received oral bridging, Week 20",−0.16 (0.476) log10 copies/mL
same,Virologic suppression during oral bridging (in words),HIV-1; majority of participants suppressed at OB baseline,remained virologically suppressed
same,Proportion of participants with HIV-1 RNA<50 copies/mL,"HIV-1; Missing=Excluded, OB Baseline",46/46 (100) %
same,Proportion of participants with HIV-1 RNA<50 copies/mL,"HIV-1; Missing=Excluded, OB Week 30",10/10 (100) %
same,Lower 90% CI of LEN predose concentration,[2],56.2 ng/mL
same,Mean LEN predose plasma concentration,[2],74.4 ng/mL
same,Mean LEN plasma concentration,"[3]; SC LEN total (Groups 1+2), oral LEN 300 mg QW, Day 1",27.8 (47.4) ng/mL
same,Lower 90% CI of Concentration,[3]; [4],43.6 ng/mL
same,Mean LEN plasma concentration,[3]; [4],50.7 ng/mL
same,Mean LEN plasma concentration,"[3]; SC LEN total, Week 10",54.9 (70.8) ng/mL
same,Mean LEN plasma concentration,"[3]; SC LEN total, Week 20",52.5 (77.7) ng/mL
same,Mean LEN plasma concentration,"[3]; SC LEN total, Week 30",50.1 (62.3) ng/mL
same,Mean LEN plasma concentration,"[3]; Treatment Group 1 (SC LEN + [DVY→TAF]), Day 1",28.8 (47.7) ng/mL
same,Lower 90% CI of Concentration,[3]; [5],38.6 ng/mL
same,Mean LEN plasma concentration,[3]; [5],49.4 ng/mL
same,Mean LEN plasma concentration,"[3]; Treatment Group 1, Week 10",50.9 (67.0) ng/mL
same,Mean LEN plasma concentration,"[3]; Treatment Group 1, Week 20",53.1 (84.5) ng/mL
same,Mean LEN plasma concentration,"[3]; Treatment Group 1, Week 30",43.7 (74.7) ng/mL
same,Mean LEN plasma concentration,"[3]; Treatment Group 2 (SC LEN + [DVY→BIC]), Day 1",26.7 (47.3) ng/mL
same,Lower 90% CI of Concentration,[3]; [6],42.7 ng/mL
same,Mean LEN plasma concentration,[3]; [6],52.2 ng/mL
same,Mean LEN plasma concentration,"[3]; Treatment Group 2, Week 10",59.3 (73.6) ng/mL
same,Mean LEN plasma concentration,"[3]; Treatment Group 2, Week 20",51.9 (70.2) ng/mL
same,Mean LEN plasma concentration,"[3]; Treatment Group 2, Week 30",56.5 (62.5) ng/mL
same,concentration at 1 day,"[3]; oral, SC LEN total (Groups 1+2), oral LEN 300 mg QW, Day 1, read-out: Mean LEN plasma concentration",27.8 ng/mL
same,concentration at 1 day,"[3]; oral, Treatment Group 1, Day 1, read-out: Lower 90% CI of Concentration",25.2 ng/mL
same,concentration at 10 week,"[3]; oral, Treatment Group 1, Week 10, read-out: Lower 90% CI of Concentration",41.1 ng/mL
same,concentration at 10 week,"[3]; oral, Treatment Group 1, Week 10, read-out: Mean LEN plasma concentration",50.9 ng/mL
same,concentration at 20 week,"[3]; oral, Treatment Group 1, Week 20, read-out: Lower 90% CI of Concentration",39.6 ng/mL
same,concentration at 20 week,"[3]; oral, Treatment Group 1, Week 20, read-out: Mean LEN plasma concentration",53.1 ng/mL
same,concentration at 30 week,"[3]; oral, Treatment Group 1, Week 30, read-out: Mean LEN plasma concentration",43.7 ng/mL
same,concentration at 1 day,"[3]; oral, Treatment Group 2, Day 1, read-out: Lower 90% CI of Concentration",23 ng/mL
same,concentration at 10 week,"[3]; oral, Treatment Group 2, Week 10, read-out: Lower 90% CI of Concentration",46.4 ng/mL
same,concentration at 10 week,"[3]; oral, Treatment Group 2, Week 10, read-out: Mean LEN plasma concentration",59.3 ng/mL
same,concentration at 20 week,"[3]; oral, Treatment Group 2, Week 20, read-out: Lower 90% CI of Concentration",40.2 ng/mL
same,concentration at 20 week,"[3]; oral, Treatment Group 2, Week 20, read-out: Mean LEN plasma concentration",51.9 ng/mL
same,concentration at 30 week,"[3]; oral, Treatment Group 2, Week 30, read-out: Mean LEN plasma concentration",56.5 ng/mL
same,concentration at 1 day,"[3]; sc, SC LEN total, Day 1, read-out: Lower 90% CI of Concentration",25.3 ng/mL
same,concentration at 10 week,"[3]; sc, SC LEN total, Week 10, read-out: Lower 90% CI of Concentration",47.1 ng/mL
same,concentration at 10 week,"[3]; sc, SC LEN total, Week 10, read-out: Mean LEN plasma concentration",54.9 ng/mL
same,concentration at 20 week,"[3]; sc, SC LEN total, Week 20, read-out: Lower 90% CI of Concentration",43.7 ng/mL
same,concentration at 20 week,"[3]; sc, SC LEN total, Week 20, read-out: Mean LEN plasma concentration",52.5 ng/mL
same,concentration at 30 week,"[3]; sc, SC LEN total, Week 30, read-out: Lower 90% CI of Concentration",24.4 ng/mL
same,concentration at 30 week,"[3]; sc, SC LEN total, Week 30, read-out: Mean LEN plasma concentration",50.1 ng/mL
same,concentration at 1 day,"[3]; sc, Treatment Group 1 (SC LEN + [DVY→TAF]), Day 1, read-out: Mean LEN plasma concentration",28.8 ng/mL
same,concentration at 1 day,"[3]; sc, Treatment Group 2 (SC LEN + [DVY→BIC]), Day 1, read-out: Mean LEN plasma concentration",26.7 ng/mL
